Test results taken from patent US9212381B2, “Methods and compositions for labeling polypeptides” (President and Fellows of Harvard College, priority 2011, dated 2015).
Entries after “also recorded” stand apart in the source; their conditions may differ.

Legend:
[1] = system: protein translation in rabbit reticulocyte lysates; experiment: in vitro translation of 35S-Met-labeled GFP-SuFu in rabbit reticulocyte lysates, SDS-PAGE and autoradiography; assay type: biochemical; details: for inhibition of protein translation in vitro: varying concentrations, 1 hour at 30° C.
Experimental: (§1) A plasmid carrying a GFP fusion of the mouse Suppressor of Fused (SuFu) gene under the control of an SP6 RNA polymerase promoter was used to generate 35[S]-Met-labeled GFP-SuFu by in vitro translation in rabbit reticulocyte lysates (TNT SP6 Quick coupled transcription/translation kit, Promega), according to the manufacturer's instructions. Translation reactions were performed for 1 hour at 30° C., in the absence or presence of varying concentrations of puro and OP-puro. The reactions were stopped by addition of SDS-PAGE sample buffer with 50 mM DTT and boiling. Equal amounts of lysate were separated by SDS-PAGE and the amount of in vitro translated GFP-SuFu was determined by autoradiography.
as §1, with “^35S-Met-labeled” for “35[S]-Met-labeled”, “AE-puro (azido-puromycin, FIG. 5A).” for “OP-puro.”

Cells = details: Beatty et al. 2002; cited from earlier work
NIH-3T3 cells = experiment: OP-puro labeling of cultured cells, CuAAC with Alexa568-azide, fluorescence microscopy; assay type: cell-based
Experimental: NIH-3T3 cells were grown on glass coverslips in Dulbecco modified Eagle's medium (DMEM) supplemented with 10% bovine calf serum, penicillin and streptomycin. OP-puro was added to cells in complete culture medium. After incubation for the desired amount of time, the cells were washed with PBS and then fixed with cold methanol for 2 minutes at −20° C. The cells were washed with TBS (10 mM Tris pH 7.5, 150 mM NaCl), permeabilized with TBST (TBS with 0.2% Triton X-100), and then washed with TBS again. CuAAC detection of OP-puro incorporated into nascent protein was performed by reacting the fixed cells for 30 minutes at room temperature with 20 μM Alexa568-azide, as described (Salic et al., Proc. Natl. Acad. Sci. USA 105(7):2415-2420 (2008)). Cu(I) was generated in situ from CuSO4 and ascorbic acid. After staining, the coverslips were washed several times with TBST, counterstained with Hoechst, and mounted in standard mounting media. The stained cells were imaged by DIC and by epi-fluorescence microscopy on a Nikon TE2000U microscope equipped with an OrcaER camera (Hammamatsu), and 20× PlanApo 0.75 NA and 40× PlanApo 0.95 NA air objectives (Nikon). Images were collected using Metamorph image acquisition software (Applied Precision).
To determine if protein synthesis is required for OP-puro incorporation into nascent polypeptides, cells were incubated with OP-puro, in the presence or absence of 50 micrograms/mL cycloheximide (CHX), added to the cells 15 minutes before OP-puro. This concentration of CHX was determined to completely block protein translation in cells.
To determine the effect of inhibiting the proteasome on the stability of OP-puro-conjugated polypeptide chains, cells were pulse-labeled with 50 microM OP-puro for 15 minutes and were then incubated in complete media supplemented with 50 micrograms/mL CHX (to block further incorporation of OP-puro into nascent proteins), in the presence or absence of 5 microM of the proteasome inhibitor bortezomib. Cells were fixed at the indicated times and were stained in parallel with Alexa568-azide. Two negative controls were used: 1) untreated cells; and 2) cells pre-incubated with 50 micrograms/mL CHX for 15 minutes, followed by incubation with 50 microM OP-puro and 50 micrograms/mL CHX for another 15 minutes.

[2] = system: human embryonic kidney 293T cells; experiment: translation inhibition in cells: 35S-Met bulk protein translation, SDS-PAGE and autoradiography; assay type: cell-based
Experimental: To measure translation inhibition in cells, human embryonic kidney 293T cells were pre-incubated for 30 minutes with varying concentrations of puro or OP-puro, in complete media. The cells were then incubated for 3 hours in Met-free media supplemented with 35[S]-Met (from Perkin-Elmer, at 100 microCi/mL final concentration), in the continued presence of varying concentrations of puro or OP-puro. The cells were harvested, lyzed in TBS with 1% Triton X-100 and protease inhibitors (Complete tablets, Roche), and centrifuged for 15 minutes at 20,000 g in a refrigerated centrifuge. The clarified cells lysates were analyzed by SDS-PAGE, followed by autoradiography, to measure bulk protein translation.

Human 293T cells = experiment: affinity purification of nascent polypeptide-OP-puro conjugates (CuAAC with biotin azide, beads, autoradiography); assay type: cell-based; details: 25 microM OP-puro, 1 hour, FIG. 1E
Experimental: Human 293T cells were labeled for 1 hour in Met-free DMEM supplemented with 10% dialyzed fetal bovine serum and 35[S]-Met (100 microCi/mL final). The cells were then incubated in the same media, in the presence of 10 microM puro, 25 microM OP-puro or 25 microM OP-puro and 50 micrograms/mL CHX, for an additional 1 hour. The cells were harvested, washed with ice cold PBS and then lyzed on ice in 100 mM Tris pH 8.5 with 1% Triton-X10 and protease inhibitors. The lysates were clarified by centrifugation for 15 minutes at 20,000 g and 4° C., and were then subjected to CuAAC with biotin azide for 30 minutes at room temperature. The final concentrations in the CuAAC reaction were: 100 microM biotin azide, 1 mM CuSO4 and 50 mM ascorbic acid (added last to the lysates). Biotinylated proteins were diluted in binding buffer (20 mM Tris pH 8, 500 mM NaCl, 1% Triton-X100) and were bound to Neutravidin beads (Pierce). After extensive washes with binding buffer, bound proteins were eluted, separated by SDS-PAGE and detected by autoradiography.

[3] = system: nascent proteins in mouse tissues; experiment: imaging of protein synthesis in whole animals with OP-puro, CuAAC with TMR-azide; assay type: in vivo
Experimental: One hundred microliters of a 20 mM solution of OP-puro in PBS were injected intraperitoneally into a 3-week old mouse, while a mouse injected with 100 microliters of PBS was used as negative control. Various organs were harvested after one hour and were fixed in formalin overnight. Organ fragments were embedded in paraffin, sectioned, and washed with xylene to remove the paraffin. After washing with ethanol and rehydration in TBS, the tissue sections were stained with 20 microM tetramethylrhodamine(TMR)-azide, as described (Salic et al., Proc. Natl. Acad. Sci. USA 105(7):2415-2420 (2008)). The tissue sections were counterstained with Hoechst, mounted in standard mounting media and were then imaged by fluorescence microscopy and DIC.

For CN(C)c1ncnc2c1ncn2[C@@H]1O[C@H](CO)[C@@H](NC(=O)[C@@H](N)Cc2ccc(OCCN=[N+]=[N-])cc2)[C@H]1O [AE-puro, (S)-2-Amino-3-(4-(2-azidoethoxy)phenyl)-N-((2S,3S,4R,5R)-5-(6-(dimethylamino)-9H-purin-9-yl)-4-hydroxy-2(hydroxymethyl)tetrahydrofuran-3-yl)propanamide], the “potency of protein synthesis inhibition compared with unmodified puromycin” value ([1]; reticulocyte lysates, FIG. 5B) was “equal to that of unmodified puromycin” and the “inhibition of protein translation in vitro” value [1] was “inhibits protein synthesis in a dose-dependent manner”.
In the case of [N-]=[N+]=NCC[C@H](N)C(=O)O [Aha, azidohomoalanine], the “factor by which cells prefer Met over the analog” value (Cells) is given as “about 500”.
For C[C@@H]1C[C@@H]([C@H](O)CC2CC(=O)NC(=O)C2)C(=O)[C@@H](C)C1 [CHX, cycloheximide, reference compound], the “effect on OP-puro incorporation / conjugate formation” value (NIH-3T3 cells; CHX 50 micrograms/mL) was “abolished; also recorded: do not form” and the “concentration determined to completely block protein translation in cells” value (NIH-3T3 cells; added 15 minutes before OP-puro) was 50 micrograms/mL.
In the case of C#CCCC(N)C(=O)O (stereo not drawn) [Hpg, homopropargylglycine], the “factor by which cells prefer Met over the analog” value (Cells) is given as “about 500”.
In the case of C#CCOc1ccc(C[C@H](N)C(=O)N[C@H]2[C@@H](O)[C@H](n3cnc4c(N(C)C)ncnc43)O[C@@H]2CO)cc1 [OP-puro, (S)-2-Amino-N-((2S,3S,4R,5R)-5-(6-(dimethylamino)-9H-purin-9-yl)-4-hydroxy-2-(hydroxymethyl)tetrahydrofuran-3-yl)-3-(4-(prop-2-yn-1-yloxy)phenyl)propanamide], the “potency of protein synthesis inhibition, fold lower than that of unmodified puro” value ([1]; reticulocyte lysates, FIG. 1C) is reported as 2-3 fold, the “inhibition of protein translation in vitro” value [1] is reported as “inhibits protein synthesis in a dose-dependent manner” and the “concentration that blocked protein synthesis almost completely” value ([2]; cell type not stated at the place) is reported as 25 µM. The “potency of protein synthesis inhibition, fold lower than that of unmodified puro” value ([2]; cultured cells, FIG. 1D) was 2-3 fold, the “fluorescent signal versus OP-puro concentration” value (NIH-3T3 cells; 1 hour incubation, Alexa568-azide, FIG. 2A) was “specific fluorescent signal proportional to the concentration of OP-puro; also recorded: proportional to the concentration of added OP-puro” and the “cytoplasmic OP-puro signal at later time points” value (NIH-3T3 cells; 3 hour image of FIG. 2B) was “significantly decreased”. For the same molecule, the “incubation time after which a strong signal was seen” value (NIH-3T3 cells; FIG. 2B) was 15 min, the “concentration sufficient to completely block protein synthesis” value (NIH-3T3 cells; stated in legend of FIG. 2B) was 50 µM and the “formation of conjugates with nascent polypeptide chains” value (Human 293T cells) was “formed conjugates with 35[S]-Met-labeled nascent polypeptide chains”. For the same molecule, the “OP-puro incorporation into nascent proteins in tissues” value ([3]; 100 microliters 20 mM intraperitoneally, organs harvested after 1 hour) was “specific patterns of OP-puro incorporation into nascent proteins”, the “OP-puro staining pattern, small intestine” value ([3]; intraperitoneal, 1 hour, FIG. 3A/3B) was “strongest in cells in the crypts and at the base of intestinal villi; also recorded: stains strongly the cells in the crypts (particularly Paneth cells) and the cells at the base of the villi” and the “OP-puro staining, muscle” value ([3]; intraperitoneal, 1 hour, FIG. 3C) was “striking striated pattern; also recorded: Sarcomeres are strongly stained”. For the same molecule, the “OP-puro staining, liver” value ([3]; intraperitoneal, 1 hour, FIG. 4A) was “strongest in hepatocytes; also recorded: stains strongly all hepatocytes” and the “OP-puro staining, spleen” value ([3]; intraperitoneal, 1 hour, FIG. 4C) was “strongest OP-puro signal is found at the organ's periphery, under the capsule”.
In the case of CC(C)C[C@H](NC(=O)[C@H](Cc1ccccc1)NC(=O)c1cnccn1)B(O)O [bortezomib, reference compound], the “effect on stability of OP-puro conjugates” value (NIH-3T3 cells; 5 microM bortezomib in chase, FIG. 2C) is reported as “become stable; also recorded: completely stabilized”.
